14 compounds from ChEMBL document CHEMBL2346651, “Structure-activity relationship study of tachykinin peptides for the development of novel neurokinin-3 receptor selective agonists” (Bioorg Med Chem, 2013) can be followed below.

Residues, ends and D or L forms follow the SMILES beside them.

Test [1] addresses T1, Substance-K receptor (Homo sapiens) (UniProt P21452).
T1 sequence (whole entry): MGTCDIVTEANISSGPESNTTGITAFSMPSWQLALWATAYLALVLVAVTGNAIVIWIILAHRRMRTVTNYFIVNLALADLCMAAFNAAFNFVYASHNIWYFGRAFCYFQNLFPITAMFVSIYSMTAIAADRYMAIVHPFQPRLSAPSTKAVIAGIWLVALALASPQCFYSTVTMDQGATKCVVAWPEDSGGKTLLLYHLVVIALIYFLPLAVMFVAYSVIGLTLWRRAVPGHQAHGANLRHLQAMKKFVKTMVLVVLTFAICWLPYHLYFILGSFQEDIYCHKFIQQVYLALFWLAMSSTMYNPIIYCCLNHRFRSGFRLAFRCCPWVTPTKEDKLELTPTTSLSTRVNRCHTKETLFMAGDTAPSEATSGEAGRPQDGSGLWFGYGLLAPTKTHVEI
The test is described as follows: Displacement of [125I]-NKA from NK2R (unknown origin) transfected in CHO cells at 10 uM by gamma counting analysis. The format is cell-based.

In test [2] the target is T2, Neuromedin-K receptor (Homo sapiens, UniProt P29371).
T2 sequence (P29371 whole entry): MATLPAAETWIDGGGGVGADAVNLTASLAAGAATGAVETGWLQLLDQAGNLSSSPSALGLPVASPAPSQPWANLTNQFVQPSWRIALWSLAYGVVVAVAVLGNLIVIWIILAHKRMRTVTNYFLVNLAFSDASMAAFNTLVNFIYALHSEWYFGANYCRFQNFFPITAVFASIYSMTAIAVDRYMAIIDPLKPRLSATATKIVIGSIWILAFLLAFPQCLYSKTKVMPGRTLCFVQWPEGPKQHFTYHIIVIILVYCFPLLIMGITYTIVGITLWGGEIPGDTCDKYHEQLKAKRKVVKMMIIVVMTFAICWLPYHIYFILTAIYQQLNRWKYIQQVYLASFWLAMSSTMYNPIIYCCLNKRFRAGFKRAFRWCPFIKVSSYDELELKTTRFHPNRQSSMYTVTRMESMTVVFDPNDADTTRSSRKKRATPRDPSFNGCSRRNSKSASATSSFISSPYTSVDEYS
The test is described as follows: Displacement of ([125I]-His3, MePhe7)-NKB from NK3R (unknown origin) transfected in CHO cells by gamma counting analysis. The format is cell-based.

The target of test [3] is T2, Neuromedin-K receptor. Kind of test: Agonist activity at NK3R (unknown origin) transfected in CHO cells assessed as calcium influx […]. The format is functional, cell-based.
Test [4] has as its target Substance-P receptor (Homo sapiens) (UniProt P25103). Kind of test: Displacement of [125I]-BH-SP from NK1R (unknown origin) transfected in CHO cells at 10 uM by gamma counting analysis. Type of test: cell-based.

Chain of Substance-P receptor (Homo sapiens) (P25103 whole entry): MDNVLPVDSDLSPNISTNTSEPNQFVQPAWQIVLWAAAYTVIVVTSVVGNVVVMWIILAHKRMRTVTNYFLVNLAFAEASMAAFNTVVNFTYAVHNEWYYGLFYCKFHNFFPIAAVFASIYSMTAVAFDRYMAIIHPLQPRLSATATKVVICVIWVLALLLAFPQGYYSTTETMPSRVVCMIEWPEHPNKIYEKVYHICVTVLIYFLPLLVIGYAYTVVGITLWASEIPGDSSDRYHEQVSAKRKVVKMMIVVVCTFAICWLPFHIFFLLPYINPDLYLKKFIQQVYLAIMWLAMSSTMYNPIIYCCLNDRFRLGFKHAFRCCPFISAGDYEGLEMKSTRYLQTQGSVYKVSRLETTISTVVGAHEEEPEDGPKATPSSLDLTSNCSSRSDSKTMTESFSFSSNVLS

Consider `CSCC[C@H](NC(=O)[C@H](CC(C)C)NC(=O)CNC(=O)[C@H](Cc1ccccc1)N(C)C(=O)[C@H](Cc1ccccc1)NC(=O)[C@H](Cc1ccc(O)cc1)NC(=O)[C@H](CC(=O)O)NC(=O)[C@H](Cc1cnc[nH]1)NC(=O)[C@H](CCSC)NC(=O)[C@@H](N)CC(=O)O)C(N)=O` (HELM PEPTIDE1{D.M.H.D.Y.F.[meF].G.L.M.[am]}$$$$V2.0), for which the inhibition is 51% in test [1] and less than 10% in test [4]. Further, at Neuromedin-K receptor [2], the half-maximal inhibitory concentration (IC50) turned out to be 1.5 nM. Moreover, the half-maximal effective concentration (EC50) at Neuromedin-K receptor [3] was 0.072 nM.

Regarding `CSCC[C@H](NC(=O)[C@H](CC(C)C)NC(=O)CNC(=O)[C@H](Cc1ccccc1)N(C)C(=O)[C@H](Cc1ccccc1)NC(=O)[C@H](CC(=O)O)NC(=O)[C@H](CC(=O)O)NC(=O)CNC(=O)[C@@H](NC(=O)[C@@H](N)CC(=O)O)[C@@H](C)O)C(N)=O` (HELM PEPTIDE1{D.T.G.D.D.F.[meF].G.L.M.[am]}$$$$V2.0), the inhibition in test [1] and in test [4] was less than 10% throughout. This compound also yielded an IC50 at Neuromedin-K receptor [2] of 81 nM. Moreover, at Neuromedin-K receptor [3], the 50% effective concentration (EC50) came out at 0.11 nM.

Regarding `CSCC[C@H](NC(=O)[C@H](CC(C)C)NC(=O)CNC(=O)[C@H](Cc1ccccc1)N(C)C(=O)[C@H](Cc1ccccc1)NC(=O)[C@H](CC(=O)O)NC(=O)[C@H](CC(=O)O)NC(=O)[C@H](CO)NC(=O)[C@H](CCCCN)NC(=O)[C@@H]1CCCN1C(=O)[C@@H](NC(=O)[C@@H](N)CC(=O)O)C(C)C)C(N)=O` (HELM PEPTIDE1{D.V.P.K.S.D.D.F.[meF].G.L.M.[am]}$$$$V2.0), the inhibition in test [1] and in test [4] was less than 10% in each case. At Neuromedin-K receptor [2], the IC50 turned out to be 27 nM. Further, at Neuromedin-K receptor [3], the EC50 worked out at 0.085 nM.

In the case of `CSCC[C@H](NC(=O)[C@H](CC(C)C)NC(=O)CNC(=O)[C@H](Cc1ccccc1)N(C)C(=O)[C@H](Cc1ccccc1)NC(=O)[C@H](CCC(N)=O)NC(=O)[C@H](CC(=O)O)NC(=O)[C@H](CO)NC(=O)[C@H](CCCCN)NC(=O)[C@@H]1CCCN1C(=O)[C@@H](NC(=O)[C@@H](N)CC(=O)O)C(C)C)C(N)=O` (HELM PEPTIDE1{D.V.P.K.S.D.Q.F.[meF].G.L.M.[am]}$$$$V2.0), the inhibition in test [1] was found to be 11%; in test [4], 46%. The same compound gave an IC50 at Neuromedin-K receptor [2] of 13 nM. Also, the EC50 on Neuromedin-K receptor [3] came to 0.038 nM.

Consider `CSCC[C@H](NC(=O)[C@H](CC(C)C)NC(=O)CNC(=O)[C@H](Cc1ccccc1)N(C)C(=O)[C@H](Cc1ccccc1)NC(=O)[C@H](CC(=O)O)NC(=O)[C@H](CC(N)=O)NC(=O)[C@@H]1CCCN1C(=O)[C@H](CC(=O)O)NC(=O)[C@H](C)NC(=O)[C@@H]1CCC(=O)N1)C(N)=O` (HELM PEPTIDE1{[Glp].A.D.P.N.D.F.[meF].G.L.M.[am]}$$$$V2.0), for which the inhibition in test [1] is less than 10%; in test [4], 87%. Further, on Neuromedin-K receptor [2], the 50% inhibitory concentration (IC50) stood at 54 nM. For the same compound, on Neuromedin-K receptor [3], the EC50 was 0.15 nM.

Consider `CSCC[C@H](NC(=O)[C@H](CC(C)C)NC(=O)CNC(=O)[C@H](Cc1ccccc1)N(C)C(=O)[C@H](Cc1ccccc1)NC(=O)[C@H](CC(=O)O)NC(=O)[C@H](CC(=O)O)NC(=O)[C@@H]1CCCN1C(=O)[C@H](CC(N)=O)NC(=O)[C@@H]1CCCN1C(=O)[C@@H]1CCC(=O)N1)C(N)=O` (HELM PEPTIDE1{[Glp].P.N.P.D.D.F.[meF].G.L.M.[am]}$$$$V2.0), for which the inhibition in test [1] and in test [4] was less than 10% in each case. This compound returned an IC50 at Neuromedin-K receptor [2] of 19 nM. At Neuromedin-K receptor [3], the EC50 stood at 0.083 nM.

As to `CSCC[C@H](NC(=O)[C@H](CC(C)C)NC(=O)CNC(=O)[C@@H](NC(=O)[C@H](Cc1ccccc1)NC(=O)[C@H](CCC(=O)O)NC(=O)[C@H](CC(=O)O)NC(=O)[C@@H]1CCCN1C(=O)[C@H](CC(N)=O)NC(=O)[C@@H]1CCCN1C(=O)[C@@H]1CCC(=O)N1)C(C)C)C(N)=O` (HELM PEPTIDE1{[Glp].P.N.P.D.E.F.V.G.L.M.[am]}$$$$V2.0), the inhibition turned out to be 92% in test [1] and 94% in test [4]. In addition, the concentration for half-maximal inhibition (IC50) on Neuromedin-K receptor [2] is 53 nM. Also, the 50% effective concentration (EC50) on Neuromedin-K receptor [3] was determined as 0.079 nM.

In the case of `CSCC[C@H](NC(=O)[C@H](CC(C)C)NC(=O)CNC(=O)[C@H](Cc1ccc(O)cc1)NC(=O)[C@H](Cc1ccccc1)NC(=O)[C@H](CCC(=O)O)NC(=O)[C@H](CC(=O)O)NC(=O)[C@@H]1CCCN1C(=O)[C@H](CC(N)=O)NC(=O)[C@@H]1CCCN1C(=O)[C@@H]1CCC(=O)N1)C(N)=O` (HELM PEPTIDE1{[Glp].P.N.P.D.E.F.Y.G.L.M.[am]}$$$$V2.0), the inhibition in test [1] was less than 10%; in test [4] it was 98%. The IC50 on Neuromedin-K receptor [2] was determined as 710 nM. For the same compound, the 50% effective concentration (EC50) at Neuromedin-K receptor [3] turned out to be 1.38 nM.

With `CSCC[C@H](NC(=O)[C@H](CC(C)C)NC(=O)CNC(=O)[C@H](Cc1ccccc1)N(C)C(=O)[C@H](Cc1ccccc1)NC(=O)[C@H](C)NC(=O)[C@H](CC(=O)O)NC(=O)[C@H](CCCCN)NC(=O)[C@H](CO)NC(=O)[C@@H]1CCCN1C(=O)[C@@H]1CCC(=O)N1)C(N)=O` (HELM PEPTIDE1{[Glp].P.S.K.D.A.F.[meF].G.L.M.[am]}$$$$V2.0), the inhibition in test [1] turned out to be 26%; in test [4], 48%. Also, on Neuromedin-K receptor [2], the half-maximal inhibitory concentration (IC50) stood at 7 nM. At Neuromedin-K receptor [3], the EC50 was 0.071 nM.

With `CC[C@H](C)[C@H](NC(=O)[C@H](Cc1ccccc1)NC(=O)[C@H](CC(=O)O)NC(=O)[C@H](CC(=O)O)NC(=O)[C@H](CCCCN)NC(=O)[C@H](CO)NC(=O)[C@@H]1CCCN1C(=O)[C@@H]1CCC(=O)N1)C(=O)NCC(=O)N[C@@H](CC(C)C)C(=O)N[C@@H](CCSC)C(N)=O` (HELM PEPTIDE1{[Glp].P.S.K.D.D.F.I.G.L.M.[am]}$$$$V2.0), the inhibition in test [1] was 56%; in test [4] it was 91%. Further, the IC50 on Neuromedin-K receptor [2] was 35 nM. Further, the EC50 at Neuromedin-K receptor [3] was 0.0054 nM.

As to `CSCC[C@H](NC(=O)[C@H](CC(C)C)NC(=O)CNC(=O)[C@H](Cc1ccccc1)N(C)C(=O)[C@H](Cc1ccccc1)NC(=O)[C@H](CC(=O)O)NC(=O)[C@H](CC(=O)O)NC(=O)[C@H](CCCCN)NC(=O)[C@H](CO)NC(=O)[C@@H]1CCCN1C(=O)[C@@H]1CCC(=O)N1)C(N)=O` (HELM PEPTIDE1{[Glp].P.S.K.D.D.F.[meF].G.L.M.[am]}$$$$V2.0), the inhibition in test [1] and in test [4] was less than 10% each time. Further, the IC50 at Neuromedin-K receptor [2] stood at 5.5 nM. At Neuromedin-K receptor [3], the 50% effective concentration (EC50) is 0.078 nM.

Take `CSCC[C@H](NC(=O)[C@H](CC(C)C)NC(=O)CNC(=O)[C@H](Cc1ccccc1)N(C)C(=O)[C@H](Cc1ccccc1)NC(=O)[C@H](CC(=O)O)NC(=O)[C@H](CC(N)=O)NC(=O)[C@@H]1CCCN1C(=O)[C@H](CO)NC(=O)[C@@H]1CCCN1C(=O)[C@@H]1CCC(=O)N1)C(N)=O` (HELM PEPTIDE1{[Glp].P.S.P.N.D.F.[meF].G.L.M.[am]}$$$$V2.0): the inhibition in test [1] and in test [4] was less than 10% throughout. The compound further came in with an IC50 at Neuromedin-K receptor [2] of 17 nM. Further, on Neuromedin-K receptor [3], the concentration giving a half-maximal response (EC50) worked out at 0.13 nM.

For H-DTGDKFYGLM-NH2 [SIALOKININ II], the inhibition came to 98% in test [1] and 99% in test [4]. Moreover, at Neuromedin-K receptor [2], the IC50 was 1930 nM. In addition, the concentration for a half-maximal effect (EC50) at Neuromedin-K receptor [3] is 10.9 nM.

On to H-DVPKSDDFVGLM-NH2, for which the inhibition in test [1] was found to be 74%; in test [4], 53%. The same compound showed a half-inhibitory concentration (IC50) on Neuromedin-K receptor [2] of 89 nM. In addition, the EC50 at Neuromedin-K receptor [3] was found to be 0.47 nM.
